Patent publication US20250163104A1, “MACROCYCLIC IMMUNOMODULATORS” (priority 2021, published 2025)
Where a SMILES comes first, the peptide text is derived from it. Bridges are numbered along the chain shown (N, C = ends). [ ]: non-standard residue; d: D form. The star is where a group is joined. ξ: configuration not given here. Phe(3-CF3) = N[C@@H](Cc1cccc(C(F)(F)F)c1)C(=O)O; Ala(morpholin-4-yl) = N[C@@H](CN1CCOCC1)C(=O)O; Phe(4-COOH) = N[C@@H](Cc1ccc(C(=O)O)cc1)C(=O)O; Bip = N[C@@H](Cc1ccc(-c2ccccc2)cc1)C(=O)O; Phe(3-Me) = Cc1cccc(C[C@H](N)C(=O)O)c1; Bta = N[C@@H](Cc1csc2ccccc12)C(=O)O; Val(3-OH) = CC(C)(O)[C@H](N)C(=O)O; 4Pal = N[C@@H](Cc1ccncc1)C(=O)O; Cha = N[C@@H](CC1CCCCC1)C(=O)O; Cit = NC(=O)NCCC[C@H](N)C(=O)O; Ile(3ξ) = CCC(C)[C@H](N)C(=O)O; Thr(3ξ) = CC(O)[C@H](N)C(=O)O; NMeNle = CCCC[C@H](NC)C(=O)O; dDab = NCC[C@@H](N)C(=O)O; Carboxymethyl = O=C(O)C*; Orn = NCCC[C@H](N)C(=O)O; Dab = NCC[C@H](N)C(=O)O; Dap = NC[C@H](N)C(=O)O; ξOrn = NCCCC(N)C(=O)O

What follows are compounds tested against T1, human PD-1 / PD-L1-Ig binding on Jurkat cell line over-expressing human PD-1 (Jurkat-PD-1) (Homo sapiens, UniProt Q15116) (assay: Jurkat-PD-1 Cell Binding High-Content Screening Assay (CBA)). Conditions: Jurkat-PD-1 cells, PE-labeled PD-L1-Ig 20 nM final; read-out: Jurkat HPD1_PDL1 IC50.
T1 construct: expressed in transfected cells; host or cells: Jurkat
T1 sequence (Q15116 25-288): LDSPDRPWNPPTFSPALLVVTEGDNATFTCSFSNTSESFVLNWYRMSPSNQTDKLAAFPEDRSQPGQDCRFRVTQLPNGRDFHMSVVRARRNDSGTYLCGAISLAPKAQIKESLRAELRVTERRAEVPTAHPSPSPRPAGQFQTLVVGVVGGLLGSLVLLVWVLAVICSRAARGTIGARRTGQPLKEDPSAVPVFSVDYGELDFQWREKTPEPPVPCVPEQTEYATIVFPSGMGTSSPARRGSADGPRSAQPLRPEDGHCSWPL
Type: cell-based
How it was run: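 Read-out: high-content imaging of PE-tagged PD-L1-Ig bound to Jurkat cells overexpressing human PD-1, after fixation with 4% paraformaldehyde and Hoechst 33342 nuclear staining. Ligand was used at 20 nM final for 1 hour, after a 2 h compound exposure at 37° C in serum-containing DMEM.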

Row | IC50 [nM] | SMILES
1 | 10.8 | CC(C)C[C@H]1NC(=O)[C@H](CCCN)NC(=O)[C@H](CCCN)NC(=O)[C@H](Cc2ccc(-c3ccccc3)cc2)NC(=O)[C@H](C(C)C)NC(=O)[C@H](Cc2c[nH]c3ccccc23)NC(=O)[C@H](CC(=O)O)NC(=O)[C@H](Cc2ccncc2)NC(=O)[C@H](CN)NC(=O)CSC[C@@H](C(=O)N[C@@H](C)C(N)=O)NC(=O)[C@H]([C@@H](C)O)NC(=O)[C@H](C(C)C)NC(=O)[C@H](CC2CCCCC2)NC(=O)[C@H](CCN)NC1=O [Compound 1386] ({CH2CO}-[Dap][4Pal]DWV[Bip][Orn][Orn][dL][Dab][Cha]VTCA-NH2; thioether N-14)
2 | 3.2 | CC(C)C[C@H]1NC(=O)[C@H](CCCN)NC(=O)[C@H](Cc2ccc(C(=O)O)cc2)NC(=O)[C@H](Cc2ccc(-c3ccccc3)cc2)NC(=O)[C@H](Cc2csc3ccccc23)NC(=O)[C@H](Cc2cccc(C(F)(F)F)c2)NC(=O)[C@H](CC(=O)O)NC(=O)[C@H](Cc2ccc(C(=O)O)cc2)NC(=O)[C@H](CN2CCOCC2)NC(=O)CSC[C@@H](C(=O)N[C@@H](CCN)C(N)=O)NC(=O)[C@H](CCC(=O)O)NC(=O)[C@H](C(C)C)NC(=O)[C@H](CC2CCCCC2)NC(=O)[C@H](CCN)NC1=O [Example 2739] ({CH2CO}-[Ala(morpholin-4-yl)][Phe(4-COOH)]D[Phe(3-CF3)][Bta][Bip][Phe(4-COOH)][Orn][dL][Dab][Cha]VEC[Dab]-NH2; thioether N-14)
3 | 413 | CC(C)C[C@H]1NC(=O)[C@H](CCCN)NC(=O)[C@H](CCC(=O)O)NC(=O)[C@H](Cc2ccc(-c3ccccc3)cc2)NC(=O)[C@H](C(C)C)NC(=O)[C@H](Cc2c[nH]c3ccccc23)NC(=O)[C@H](CC(=O)O)NC(=O)[C@H](Cc2ccc(OCC(=O)O)cc2)NC(=O)[C@H](CN)NC(=O)CSC[C@@H](C(=O)N[C@@H](C)C(N)=O)NC(=O)[C@H]([C@@H](C)O)NC(=O)[C@H](C(C)C)NC(=O)[C@H](Cc2ccn[nH]2)NC(=O)[C@H](CCN)NC1=O [Compound 1509]
4 | 30.6 | CC[C@H](C)[C@@H]1NC(=O)[C@H](Cc2ccc(-c3ccccc3)cc2)NC(=O)[C@H](C(C)C)NC(=O)[C@H](Cc2c[nH]c3ccccc23)NC(=O)[C@H](CC(=O)O)NC(=O)[C@H](Cc2ccc(O)cc2)NC(=O)[C@H](CN)NC(=O)CSC[C@@H](C(=O)N[C@@H](C)C(N)=O)NC(=O)[C@H]([C@@H](C)O)NC(=O)[C@H](C(C)C)NC(=O)[C@H](CC(C)C)NC(=O)[C@H](CCCNC(=N)N)NC(=O)[C@@H](CC(C)C)NC(=O)[C@H](CCCN)NC1=O [Compound 1141] ({CH2CO}-[Dap]YDWV[Bip]I[Orn][dL]RLVTCA-NH2; thioether N-14)
5 | 12.6 | CC(C)C[C@H]1NC(=O)[C@H](CCCN)NC(=O)[C@H](C(C)C)NC(=O)[C@H](Cc2ccc(-c3ccccc3)cc2)NC(=O)[C@H](C(C)C)NC(=O)[C@H](Cc2c[nH]c3ccccc23)NC(=O)[C@H](CC(=O)O)NC(=O)[C@H](Cc2ccc(OCC(=O)O)cc2)NC(=O)[C@H](C(C)O)NC(=O)CSC[C@@H](C(=O)N[C@@H](CCN)C(N)=O)NC(=O)[C@H](C(C)O)NC(=O)[C@H](C(C)C)NC(=O)[C@H](CC2CCCCC2)NC(=O)[C@H](CCN)NC1=O (stereo partly drawn) [Compound 2601] ({CH2CO}-[Thr(3ξ)]Y(Carboxymethyl)DWV[Bip]V[Orn][dL][Dab][Cha]V[Thr(3ξ)]C[Dab]-NH2; thioether N-14)
6 | 4.6 | CC(C)C[C@@H]1NC(=O)[C@H](CCN)NC(=O)[C@@H](CC(C)C)NC(=O)[C@@H](CCN)NC(=O)[C@H](C(C)C)NC(=O)[C@H](Cc2ccc(-c3ccccc3)cc2)NC(=O)[C@H](C(C)C)NC(=O)[C@H](Cc2c[nH]c3ccccc23)NC(=O)[C@H](CC(=O)O)NC(=O)[C@H](Cc2ccc(O)cc2)NC(=O)[C@H](CC(N)=O)NC(=O)CSC[C@@H](C(=O)N[C@@H](C)C(N)=O)NC(=O)[C@H]([C@@H](C)O)NC(=O)[C@H](C(C)C)NC1=O [Compound 1023] ({CH2CO}-NYDWV[Bip]V[dDab][dL][Dab]LVTCA-NH2; thioether N-14)

Further lines, the compound ahead of its results:

Row | SMILES | IC50 [nM]
7 | CCC(C)[C@@H]1NC(=O)[C@H](Cc2ccc(-c3ccccc3)cc2)NC(=O)[C@H](C(C)C)NC(=O)[C@H](Cc2c[nH]c3ccccc23)NC(=O)[C@H](CC(=O)O)NC(=O)[C@H](Cc2ccc(-c3cccc(C(=O)O)c3)cc2)NC(=O)[C@H](Cc2ccc(OCC(=O)O)cc2)NC(=O)CSC[C@@H](C(=O)N[C@@H](C)C(N)=O)NC(=O)[C@H]([C@@H](C)O)NC(=O)[C@H](C(C)C)NC(=O)[C@H](CC2CCCCC2)NC(=O)[C@H](CCN)NC(=O)[C@@H](CC(C)C)NC(=O)[C@H](CCCN)NC1=O (stereo partly drawn) [Compound 2220] | 34.6
8 | Cc1cccc(C[C@@H]2NC(=O)[C@H](CC(=O)O)NC(=O)[C@H](Cc3ccc(C(=O)O)cc3)NC(=O)[C@H](Cc3ccncc3)NC(=O)CSC[C@@H](C(=O)N[C@@H](CC(N)=O)C(N)=O)NC(=O)[C@H](CO)NC(=O)[C@H](C(C)C)NC(=O)[C@H](CC3CCCCC3)NC(=O)[C@H](CCN)NC(=O)[C@@H](CC(C)C)NC(=O)[C@H](CCCN)NC(=O)[C@H](Cc3ccc(OCC(=O)O)cc3)NC(=O)[C@H](Cc3ccc(-c4ccccc4)cc3)NC(=O)[C@H](Cc3ccc(OCC(=O)O)cc3)NC2=O)c1 [Compound 2303] ({CH2CO}-[4Pal][Phe(4-COOH)]D[Phe(3-Me)]Y(Carboxymethyl)[Bip]Y(Carboxymethyl)[Orn][dL][Dab][Cha]VSCN-NH2; thioether N-14) | 5.3
9 | CC(C)C[C@@H]1NC(=O)[C@H](CCCCN)NC(=O)[C@@H](CC(C)C)NC(=O)[C@H](CCCN)NC(=O)[C@H](Cc2cnc[nH]2)NC(=O)[C@H](Cc2ccc(-c3ccccc3)cc2)NC(=O)[C@H](C(C)C)NC(=O)[C@H](Cc2c[nH]c3ccccc23)NC(=O)[C@H](CC(=O)O)NC(=O)[C@H](Cc2ccc(O)cc2)NC(=O)[C@H](CC(N)=O)NC(=O)CSC[C@@H](C(=O)N[C@@H](C)C(N)=O)NC(=O)[C@H]([C@@H](C)O)NC(=O)[C@H](C(C)C)NC1=O [Compound 1133] ({CH2CO}-NYDWV[Bip]H[Orn][dL]KLVTCA-NH2; thioether N-14) | 33.1
10 | CCC(C)[C@@H]1NC(=O)[C@H](Cc2ccc(-c3ccccc3)cc2)NC(=O)[C@H](C(C)C)NC(=O)[C@H](Cc2cccc(C)c2)NC(=O)[C@H](CC(=O)O)NC(=O)[C@H](Cc2ccc(C(=O)O)cc2)NC(=O)[C@H](Cc2ccncc2)NC(=O)CSC[C@@H](C(N)=O)NC(=O)[C@H](CCC(N)=O)NC(=O)[C@H](C(C)C)NC(=O)[C@H](CC2CCCCC2)NC(=O)[C@H](CCN)NC(=O)[C@@H](CC(C)C)NC(=O)[C@H](CCCN)NC1=O (stereo partly drawn) [Compound 2280] ({CH2CO}-[4Pal][Phe(4-COOH)]D[Phe(3-Me)]V[Bip][Ile(3ξ)][Orn][dL][Dab][Cha]VQC-NH2; thioether N-14) | 40.9
11 | CC(C)C[C@H]1NC(=O)C(CCCN)NC(=O)[C@H](CCCNC(N)=O)NC(=O)[C@H](Cc2ccc(-c3ccccc3)cc2)NC(=O)[C@H](C(C)C)NC(=O)[C@H](Cc2c[nH]c3ccccc23)NC(=O)[C@H](CC(=O)O)NC(=O)[C@H](Cc2ccc(C(=O)O)cc2)NC(=O)[C@H](CN)NC(=O)CSC[C@@H](C(=O)N[C@@H](C)C(N)=O)NC(=O)[C@H]([C@@H](C)O)NC(=O)[C@H](C(C)C)NC(=O)[C@H](CC2CCCCC2)NC(=O)[C@H](CCN)NC1=O (stereo partly drawn) [Compound 1333] ({CH2CO}-[Dap][Phe(4-COOH)]DWV[Bip][Cit][ξOrn][dL][Dab][Cha]VTCA-NH2; thioether N-14) | 6.9
12 | Cc1cccc(C[C@@H]2NC(=O)[C@H](CC(=O)O)NC(=O)[C@H](Cc3ccc(O)cc3)NC(=O)[C@H](CC(N)=O)NC(=O)CSC[C@@H](C(=O)N[C@@H](C)C(N)=O)NC(=O)[C@H]([C@@H](C)O)NC(=O)[C@H](C(C)C)NC(=O)[C@H](CC(C)C)NC(=O)[C@H](CCN)NC(=O)[C@@H](CC(C)C)NC(=O)[C@H](CCCN)NC(=O)[C@H](CCCNC(N)=O)NC(=O)[C@H](Cc3ccc(-c4ccccc4)cc3)NC(=O)[C@H](CC(C)C)NC2=O)c1 [Compound 1305] ({CH2CO}-NYD[Phe(3-Me)]L[Bip][Cit][Orn][dL][Dab]LVTCA-NH2; thioether N-14) | 11.7
13 | CC(C)C[C@H]1NC(=O)[C@H](CCCN)NC(=O)[C@H](C(C)C)NC(=O)[C@H](Cc2ccc(-c3ccccc3)cc2)NC(=O)[C@H](C(C)C)NC(=O)[C@H](Cc2c[nH]c3ccccc23)NC(=O)[C@H](CC(=O)O)NC(=O)[C@H](Cc2ccc(OCC(=O)O)cc2)NC(=O)[C@H](CN)NC(=O)CSC[C@@H](C(=O)N[C@@H](C)C(N)=O)NC(=O)[C@H]([C@@H](C)O)NC(=O)[C@H](C(C)C)NC(=O)[C@H](CC2CCCCC2)NC(=O)[C@H](Cc2cnc[nH]2)NC1=O [Compound 1525] | 15.4
14 | CCCC[C@H]1C(=O)N[C@@H](Cc2ccc(C(=O)O)cc2)C(=O)N[C@@H](CC(=O)O)C(=O)N[C@@H](Cc2cccc(C)c2)C(=O)N[C@@H](Cc2ccc(OCC(=O)O)cc2)C(=O)N[C@@H](Cc2ccc(-c3ccccc3)cc2)C(=O)N[C@@H](Cc2ccc(OCC(=O)O)cc2)C(=O)N[C@@H](CCCN)C(=O)N[C@H](CC(C)C)C(=O)N[C@@H](CCN)C(=O)N[C@@H](CC2CCCCC2)C(=O)N[C@@H](C(C)(C)O)C(=O)N[C@@H](CCC(=O)O)C(=O)N[C@H](C(=O)N[C@@H](CCN)C(N)=O)CSCC(=O)N1C [Compound 2688] ({CH2CO}-[NMeNle][Phe(4-COOH)]D[Phe(3-Me)]Y(Carboxymethyl)[Bip]Y(Carboxymethyl)[Orn][dL][Dab][Cha][Val(3-OH)]EC[Dab]-NH2; thioether N-14) | 41.3
15 | CCC(C)[C@@H]1NC(=O)[C@H](Cc2ccc(-c3ccccc3)cc2)NC(=O)[C@H](C(C)C)NC(=O)[C@H](Cc2cccc(C)c2)NC(=O)[C@H](CC(=O)O)NC(=O)[C@H](Cc2ccc(C(=O)O)cc2)NC(=O)[C@H](Cc2ccncc2)NC(=O)CSC[C@@H](C(=O)N[C@H](CC(N)=O)C(N)=O)NC(=O)[C@H](CO)NC(=O)[C@H](C(C)C)NC(=O)[C@H](CC2CCCCC2)NC(=O)[C@H](CCN)NC(=O)[C@@H](CC(C)C)NC(=O)[C@H](CCCN)NC1=O (stereo partly drawn) [Compound 2300] ({CH2CO}-[4Pal][Phe(4-COOH)]D[Phe(3-Me)]V[Bip][Ile(3ξ)][Orn][dL][Dab][Cha]VSC[dN]-NH2; thioether N-14) | 13.4
